Patent publication US10940188B2, “Compounds and methods for treatment and prevention of Flavivirus infection” (priority 2016, dated 2021)

Experiments:
[1] = tested on: hNPCs infected with ZIKV PRVABC59; assay: hNPC proliferation after ZIKV infection (EdU); format: cell-based, human; settings: PHA-690509 1 μM, Seliciclib 5 μM
Method: (§1) FIGS. 17A-17C. Analysis of potential toxicity of CDKis on human astrocyte viability and hNPC proliferation. Human iPSC-derived astrocytes (BJ line) were treated with each indicated compound (cpd) for 25 hours prior to cell viability analysis as measured in relative luciferase units for ATP production. Values represent mean+s.d. (n=3 cultures; ***P<0.001; **P<0.01; One-way ANOVA for comparison with the DMSO treatment). RLU: relative luminescence units. hNPCs were treated with saline, PHA-690509 (PHA, 1 μM) or Seliciclib (5 μM), 1 hour prior to ZIKV PRVABC59 infection (MOI=0.08). At 72 hours post infection, EdU (10 μM) was added to hNPCs and cells were cultured for additional 4 hours prior to fixation and staining for EdU and DAPI. Values represent mean+s.e.m. (n=3 cultures; ***P<0.001; One-way ANOVA for comparison with the mock treatment). Day 20 forebrain-specific brain organoids were treated with PHA-690509 (1 μM) or Seliciclib (5 μM) for 3 days and hNPC proliferation was evaluated by phospho-Histone 3 (PH3) expression within the ventricular zone. Values represent mean+s.e.m. (n=8 organoids; P>0.05; One-way ANOVA for comparison with the mock treatment).

[2] = tested on: forebrain-specific brain organoids; assay: hNPC proliferation in forebrain organoids (phospho-Histone 3), compound alone; format: cell-based, human; settings: 3 days
Method: as §1

[3] = tested on: ZIKV production from SNB-19 cells; assay: Infectious ZIKV production from SNB-19 cells, focus-forming unit assay on Vero cells; format: cell-based, Zika virus; settings: PRVABC59-ZIKV, SNB-19 supernatants on Vero cells, ZIKV-ENV stain; read-out: IC50 against ZIKV infection in human glioblastoma cell culture
Method: FIGS. 2A-1, 2A-2, 2B-1, 2B-2, 2C-1, 2C-2, 2D-1, 2D-2, 2D-3, 2E-1, 2E-2, and 2F. […] Screening of select compounds for antiviral activity against ZIKV infection was carried out. Glioblastoma SNB-19 cells were treated with indicated compound at 10×AC50 (determined in the primary caspase screen) for 1 hour prior to inoculation with FSS-13025 (at MOI=1). Cells were harvested 24 hours post infection and analyzed by Western blot for ZIKV-NS1 or GAPDH (FIGS. 2A-1 and 2A-2). Titration of PHA-690509 on glioblastoma cells for anti-ZIKV activity. Three strains of virus (FSS-13025, PRVABC59, and MR766; MOI=1) were tested. Shown are sample western blot images (FIG. 2B-1) and ImageJ quantification (FIG. 2B-2). Values represent mean±s.d. (n=3; ***P<0.001; One-way ANOVA). Titration of Emricasan on SNB-19 cells for anti-ZIKV activity was conducted similarly (FIGS. 2C-1 and 2C-2). Values represent mean±s.d. […] Sample western blot (FIG. 2D-2) and ImageJ quantification (FIG. 2D-3) are shown for infection with the PRVABC59 strain (MOI=1). Results for additional strains are shown in FIGS. 6A-F. Values represent mean±s.d. […] The concentration of NS1 in the medium of infected SNB-19 cells collected 24 hours post-infection was quantified by a ZIKV-NS1 ELISA kit (FIGS. 2E-1 and 2E-2). […] Cell culture supernatant was collected 24 hours after infection, and infectious virions were quantified for focus-forming units (FFU) using Vero cells. […] Curves represent best fits for calculating IC50 values, and the insets report the calculated IC50 value for each compound.
FIGS. 18A, 18B, 18C-1, 18C-2, 18D, 18E, 18F, 18G-1, and 18G-2. […] 24 hours post infection, supernatants from SNB-19 cells were titrated onto naïve vero cells plated in a monolayer in 96-well plates for infectious focus-forming unit assay as previously described and focus forming units quantified. […] Immunofluorescence (IF) staining (FIG. 18C-1) and quantification (FIG. 18C-2) of ZIKV positive SNB-19 cells following infection with one of three ZIKV strains and treatment with emetine at 0.01, 0.1, or 1 μM. […]
FIG. 21. […] IC50's calculated using graphpad PRISM software. […]

SMILES	rescue of ZIKV-induced reduction of hNPC proliferation [1]	effect of the treatment itself on hNPC proliferation [2]	IC50 [3] [nM]
CC[C@H](CO)Nc1nc(NCc2ccccc2)c2ncn(C(C)C)c2n1 [Seleciclib, Seliciclib]	partially rescued ZIKV-induced reduction of hNPC proliferation	minimal effect on hNPC proliferation in brain organoids	
CCCCCCCC(=O)Oc1ccc(Cl)cc1C(=O)Nc1ccc([N+](=O)[O-])cc1Cl [DK520]			< 3000
